Data reported in patent US9925170B2, “Methods of adipolysis and compositions useful therein” (priority 2015, dated 2018).

Key:
[1] = test system: Human mature adipocytes
Protocol: Human pre-adipocytes (Lonza, Allendale, N.J.) were differentiated into mature adipocytes according to the supplier's instructions. Mature adipocytes in maintenance medium (Zen-Bio, Research Triangle Park, N.C.) were treated with different statins (Sigma, St. Louis, Mo.) for 7 days over a range of concentrations. Cell viability was measured at Day 1, 3, 5, and 7 using the ALAMARBLUE® assay (Invitrogen, Carlsbad, Calif.).

[2] = test system: subcutaneous fat layer; settings: 25 mg/kg intraperitoneal, 28 consecutive days (FIG. 6)
Protocol: Three untreated mice were used as reference animals. On Day 29, all animals were sacrificed and histopathological examination of the dorsal lumbar skin was performed. […] The severity of subcutaneous fat atrophy was scored on a scale ranging from normal (score of “0”) to severe (score of “4”).

[3] = test system: subcutaneous adipose tissue; experiment: Daily topical or intraperitoneal administration in mice, histopathology of mid-scapular skin; type: in vivo, Female BALB/cAnNCrl mice
Protocol: Female BALB/cAnNCrl mice were divided into five groups of three mice/group and seven groups of eight mice/group. Mice in Group 1 were age-matched, untreated pre-study reference animals, and mice in Group 2 were age-matched, untreated Day 29 reference animals. […] Mid-scapular skin was collected from each animal and histopathological examination was performed to determine the effects of the test articles on subcutaneous adipose deposition and skin thickness.

[4] = intraperitoneal 25 mg/kg, 28 days

Compound	dose dependence of cytotoxic effect [1]	fat layer atrophy in skin sections [2]	atrophy of subcutaneous adipose tissue [3, 4]	atrophy of subcutaneous adipose tissue ([3]; topical 0.5%, 28 days)	atrophy of subcutaneous adipose tissue ([3]; topical 2.5%, 7 days)	atrophy of subcutaneous adipose tissue ([3]; topical 2.5%, 28 days)	atrophy of subcutaneous adipose tissue ([3]; topical 0.5%, 7 days)
CC(C)n1c(/C=C/C(O)CC(O)CC(=O)O)c(-c2ccc(F)cc2)c2ccccc21 (stereo not drawn) [fluvastatin]	dose-dependent cytotoxic effect	–	–	–	–	–	–
CC[C@H](C)C(=O)O[C@H]1C[C@@H](C)C=C2C=C[C@H](C)[C@H](CC[C@@H]3C[C@@H](O)CC(=O)O3)[C@H]21 [lovastatin]	–	significant fat layer atrophy	present in skin of all mice	Only one mouse	present in all mice	present in all mice	–
Cc1ccc(N(CC2=NCCN2)c2cccc(O)c2)cc1 [phentolamine]	–	–	present in skin of all mice	–	present in mice	in one mouse	present in mice
CC(=O)[C@H]1CC[C@H]2[C@@H]3CC=C4C[C@@H](O)CC[C@]4(C)[C@H]3CC[C@]12C [pregnenolone]	–	–	present in skin of all mice	present in a one mouse	–	–	–
